The values below come from paper PMC4020581 (Biochemistry, 2014).

The target in this test is T1, FtsZ (Bacillus subtilis, UniProt P17865).
T1 sequence (P17865 1-382): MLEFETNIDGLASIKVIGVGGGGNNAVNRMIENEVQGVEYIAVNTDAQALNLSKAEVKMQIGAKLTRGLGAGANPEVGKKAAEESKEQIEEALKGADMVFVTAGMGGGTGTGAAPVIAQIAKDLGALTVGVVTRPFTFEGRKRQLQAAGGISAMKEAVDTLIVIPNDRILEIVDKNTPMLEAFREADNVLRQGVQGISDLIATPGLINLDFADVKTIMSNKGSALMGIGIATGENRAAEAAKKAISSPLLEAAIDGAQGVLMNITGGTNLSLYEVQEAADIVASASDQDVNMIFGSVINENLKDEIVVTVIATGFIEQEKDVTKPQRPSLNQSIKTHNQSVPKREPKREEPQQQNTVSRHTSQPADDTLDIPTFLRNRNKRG
Briefly: malachite green/ammonium molybdate GTPase assay. The format is biochemical.

For `Nc1nc2c(ncn2[C@@H]2O[C@H](COP(=O)(O)OP(=O)(O)OP(=O)(O)O)[C@@H](O)[C@H]2O)c(=O)[nH]1` [GTP], the “malachite green/ammonium molybdate GTPase assay (1 mM GTP)” value was 1.5 ± 0.6 min^–1.
